Laboratory results as given in patent US4327114A, “Substituted 1,8-dihydroxy-9-(10H)anthracenones” (Boehringer Ingelheim GmbH, priority 1980, dated 1982).
Values belong to the compound of their own block, whether it stands above or below them.

Assays:
mouse = assay: Acute toxicity in the mouse; type: in vivo
Description: (§1) The acute toxicity was determined in the mouse and in the rat. Determined was the LD50, i.e. the dose after administration of which 50% of the animals died within 14 days, or it was determined how many of the 10 treated animals died within the period of observation.

skin of guinea pigs = assay: Skin compatibility test on guinea pigs; type: in vivo, guinea pig (Perbright White strain); conditions: for Sum of the reactions divided by the number of animals: score 0 no irritation to 3 very strong erythema; for skin compatibility compared with compound A: Table 3
Description: Guinea pigs of the Perbright White strain, with a body weight of about 350 gm, were fed with standard guinea pig feed (Altromin 3022) and water ad lib.
During the test, the animals were kept in single cages. The test substances, which were dissolved in a well compatible solvent, were applied to the skin of the animals (diameter of the test area 3.5 cm) daily for 3 weeks, from Monday to Friday. The animals were shaved each Monday, Wednesday and Friday in the early morning, the treatment with the test substances was performed in the early afternoon. Immediately before administration of the substance, the skin reaction was tested. The evaluation was carried out visually, and erythema, edema, and mycosis of the skin were considered.
The following evaluation was made:
2: strong erythema with beginning edema
3: very strong erythema with edema or beginning necrosis.
The numerical sum of the reactions was used for the total evaluation of a group of animals.

[1] = Penetration and metabolization in the skin in vitro; type: in vitro ADME, pig; conditions: thin-layer chromatography; for penetration into the layers of the skin: same carriers
[2] = Natural color of the substance (UV-absorption, FIG. 1); type: physicochemical; conditions: shortwave portion of visible light, beginning at 380 nm
Source text: Topically administrable substances which are colored are undesirable for cosmetic reasons and also because the lingerie may become soiled. […] This is also expressed by the optic impression of the preparations. […] This is a further advantage compared with dithranol.

guinea pigs = assay: Sensitizing activity on guinea pigs; type: in vivo, guinea pig (Perbright White strain); conditions: 1:10 to 1:50 of the original concentrations, behind the ears
Description: The sensitizing activity was tested 2 weeks after the skin compatibility test with 1:10 to 1:50 of the originally used concentrations behind the ears.

[3] = biological target: glucose-6-phosphate-dihydrogenase; assay: Inhibition of glucose-6-phosphate-dihydrogenase after 120 minutes incubation; type: biochemical; conditions: 37° C., pH 7.6, REED and MUENCH
Description: The inhibiting effect upon enzymes was determined by measurement of the inhibition of glucose-6-phosphate-dihydrogenase.
The following equilibrium was observed: [drawing 5] (NADP-nicotinamide-adenine-dinucleotide-phosphate). The rate of formation of NADPH is a measure of the enzyme activity; it can be measured by means of the increase in extinction at […] per unit of time.
0.025 ml of glucose-6-phosphate-dihydrogenase were diluted to 10 ml with distilled water (Solution I). 100 mg of nicotinamide-adenine-dinucleotide-phosphate were dissolved in 13 ml of distilled water (Solution II). 47.2 mg of glucose-6-phosphate were dissolved in another 10 ml of distilled water (Solution III). Besides this, a buffer solution (Solution IV) was prepared as follows:
0.28 gm of triethanolamine hydrochloride and 1.461 gm of ethylene-diamine tetraacetic acid disodium salt were dissolved in 1 liter of distilled water, and the solution was adjusted to pH 7.6 with sodium hydroxide. The substance to be tested was dissolved in dimethyl formamide or ethanol (Solution V). Tested end-concentrations: 25, 12.5, 6.25, 3.125, 1.56 and 0.78 μg/ml.
A mixture of 0.1 ml of Solution I, 0.1 ml of Solution II, 2.67 ml of Solution IV and 0.03 ml of Solution V was kept at 37° C. for 120 minutes. After addition of 0.1 ml of Solution III and thorough mixing, the change in extinction was measured photometrically at 366 nm over 3 minutes. The inhibition values were calculated from the average values of 3 measurements (as change of extinction per minute), compared to controls to which the pure solvent was added as inhibitor solution. The ED50 was calculated according to the method of REED and MUENCH from the inhibiting values of the different concentrations. The following table contains the values thus determined: […]

skin [4] = assay: Skin compatibility under occlusion, method of Mustakallio; type: in vivo; conditions: 4 to 128 mmols in white vaseline, after 4 and after 16 hours of occlusion
Description: In a further test, according to the method of Mustakallio, compound A was applied at concentrations of 1, 2, 4, 8, 16, 32 mmols in white vaseline and allowed to remain on the skin for 4 hours under occlusion. Compounds C and K, however, were applied at concentrations of 4, 8, 16, 32, 64, 128 mmols, also in white vaseline, and allowed to remain on the skin for 16 hours under occlusion. […] This means that the novel compounds are more compatible by a factor of at least 64.

[5] = Acute toxicity in the mouse; type: in vivo; conditions: in vivo, ip, within 14 days
Description: as §1

[6] = test system: skin (forearms of volunteer human test subjects); assay: Orienting skin compatibility in humans (ointments on forearm); type: in vivo; conditions: 0.44% ointment, 16 hours, doubled to 0.88% after 3 days if no reaction
Description: Ointments, each containing individually 0.44% of compounds […] and K were applied to the forearms of volunteer human test subjects, covered with bandage gauze and allowed to remain on the skin for 16 hours. After 16 hours the ointments were washed off with soap solution, and the skin irritation and discoloration, if any, were evaluated visually and photographed. Then, the test ointments were again administered and allowed to remain on the skin until the next day. Again, the reactions were evaluated and a new treatment was started.

[7] = Acute toxicity in the rat; type: in vivo; conditions: in vivo, ip, within 14 days
Description: as §1

rat = assay: Acute toxicity in the rat; type: in vivo; conditions: 2000 mg/kg
Description: as §1

psoriasis = conditions: cited from earlier work; for antipsoriatic activity: literature or prior use
skin [8] = conditions: literature or prior use; cited from earlier work

metabolization in the skin [1]: metabolized in a similar manner
ED50, inhibition of incubation after 120 minutes [3]: 5.67 µg/mL
Compound: CC(C)c1cc(C(C)C)c2c(c1O)C(=O)c1c(O)cccc1C2 [G, 1,8-Dihydroxy-2,4-diisopropyl-9-(10H)anthracenone]
discoloration of the skin [6]: no skin irritation or discoloration of the skin
skin irritation [6]: no skin irritation
penetration into the layers of the skin [1]: penetrate to an approximately equal extent

ED50, inhibition of incubation after 120 minutes [3]: 3.85 µg/mL
Compound: O=C1c2c(O)cccc2Cc2c(Cl)ccc(O)c21 [H, 4-Chloro-1,8-dihydroxy-9-(10H)anthracenone]

ED50, inhibition of incubation after 120 minutes [3]: 6.32 µg/mL
Compound: CC(C)(C)c1ccc2c(c1O)C(=O)c1c(O)cccc1C2 [D, 2-tert. Butyl-1,8-dihydroxy-9-(10H)anthracenone]
Sum of the reactions divided by the number of animals (skin of guinea pigs; 0.03%, end of 1st week): 0.083
Sum of the reactions divided by the number of animals (skin of guinea pigs; 0.03%, end of 2nd week): 0.042
Sum of the reactions divided by the number of animals (skin of guinea pigs; 0.03%, end of 3rd week): 0.00
skin compatibility compared with compound A (skin of guinea pigs): considerably more skin-compatible than compound A
discoloration of the skin [6]: no skin irritation or discoloration of the skin
skin irritation [6]: no skin irritation
sensitization (guinea pigs): no sensitization

ED50, inhibition of incubation after 120 minutes [3]: 3.61 µg/mL
Compound: CCCCC(C)c1ccc2c(c1O)C(=O)c1c(O)cccc1C2 (centres unmarked) [E, 2-(2-Hexyl)-1,8-dihydroxy-9-(10H)anthracenone]
discoloration of the skin [6]: no skin irritation or discoloration of the skin
skin irritation [6]: no skin irritation

Continued, compound first:

Compound: CC(C)(C)c1ccc2c(c1O)C(=O)c1c(ccc(C(C)(C)C)c1O)C2 [Compound K, 2,7-Di-tert. butyl-1,8-dihydroxy-9-(10H)anthracenone]
Number of dead animals (mouse; i.p., 1000 mg/kg): 0/10
Number of dead animals (mouse; p.o., 4000 mg/kg): 0/10
Number of dead animals (mouse; sc., 1000 mg/kg): 0/10
Sum of the reactions divided by the number of animals (skin of guinea pigs; 0.03%, end of 1st week): 0.00
Sum of the reactions divided by the number of animals (skin of guinea pigs; 0.03%, end of 2nd week): 0.042
Sum of the reactions divided by the number of animals (skin of guinea pigs; 0.03%, end of 3rd week): 0.00
skin compatibility compared with compound A (skin of guinea pigs): considerably more skin-compatible than compound A
penetration into the layers of the skin [1]: penetrate to an approximately equal extent
metabolization in the skin [1]: metabolized in a similar manner
UV-absorption / yellow color [2]: significantly less UV-absorption
sensitization (guinea pigs): no sensitization
ED50, inhibition of incubation after 120 minutes [3]: 7.77 µg/mL
skin irritations or discolorations (skin [4]): no skin irritations or discolorations could be observed

Compound: CC(C)c1ccc(O)c2c1Cc1cccc(O)c1C2=O [Compound F, 1,8-Dihydroxy-4-isopropyl-9-(10H)anthracenone]
LD50 at 336 h [5]: 52 mg/kg
Number of dead animals (mouse; p.o., 2000 mg/kg): 0/10
Number of dead animals (mouse; sc., 2000 mg/kg): 0/10
Sum of the reactions divided by the number of animals (skin of guinea pigs; 0.015%, end of 1st week): 0.085
Sum of the reactions divided by the number of animals (skin of guinea pigs; 0.015%, end of 2nd week): 0.085
Sum of the reactions divided by the number of animals (skin of guinea pigs; 0.015%, end of 3rd week): 0.085
Sum of the reactions divided by the number of animals (skin of guinea pigs; 0.045%, end of 1st week): 0.085
Sum of the reactions divided by the number of animals (skin of guinea pigs; 0.045%, end of 2nd week): 0.085
Sum of the reactions divided by the number of animals (skin of guinea pigs; 0.045%, end of 3rd week): 0.085
skin compatibility compared with compound A (skin of guinea pigs): considerably more skin-compatible than compound A
discoloration of the skin [6]: no skin irritation or discoloration of the skin
skin irritation [6]: no skin irritation
LD50 at 336 h [7]: 45 mg/kg
Number of dead animals (rat; p.o.): 0/10
Number of dead animals (rat; sc.): 0/10
sensitization (guinea pigs): no sensitization
ED50, inhibition of incubation after 120 minutes [3]: 5.35 µg/mL

Compound: Cc1cc(O)c2c(c1)Cc1cccc(O)c1C2=O [Compound B, 1,8-Dihydroxy-3-methyl-9-(10H)-anthracenone, reference compound]
discoloration of the skin [6]: skin discoloration similar to compound A
ED50, inhibition of incubation after 120 minutes [3]: 6.86 µg/mL

Compound: O=C1c2c(O)cccc2Cc2ccc(C3CCCCC3)c(O)c21 [Compound I, 2-Cyclohexyl-1,8-dihydroxy-9-(10H)anthracenone]
ED50, inhibition of incubation after 120 minutes [3]: 3.94 µg/mL

Compound: O=CCCC1(CCC=O)c2cccc(O)c2C(=O)c2c(O)cccc21 [bis-(formylethyl)-dithranol]
antipsoriatic activity (psoriasis): did not exhibit any antipsoriatic activity
skin irritation and/or discoloration (skin [8]): no irritation and discoloration

Compound: CC(=O)Oc1cccc2cc3cccc(OC(C)=O)c3c(OC(C)=O)c12 [dithranol triacetate, 1,8,9-Triacetoxyanthracene]
antipsoriatic activity (psoriasis): less active than dithranol
therapeutic index (psoriasis; literature, compared with dithranol): a real improvement of the therapeutic index could not be obtained
skin irritation and/or discoloration (skin [8]): less skin irritation

Compound: CC(=O)C1c2cccc(O)c2C(=O)c2c(O)cccc21 [10-Acetyl-dithranol]
skin irritation and/or discoloration (skin [8]): discolored and irritated the skin at concentrations from 0.5% even more than the starting compound
